Consider two compounds from US20070092551A1, “Therapeutic agent” (TAKARA BIO INC., priority 2003, published 2007).

Series [1] has as its system insulin-resistant mature adipocytes. In words: Enhancing action on glucose uptake into insulin-resistant (TNF-α treated) mature adipocytes. The format is cell-based. The settings on record: 4-hydroxyderricin 30 μM; mature adipocytes treated with mouse-derived TNF-α 10 or 20 ng/mL. On the procedure:
It is said that tumor necrosis factor a (TNF-α) is deeply involved in insulin resistance, and it has been known that a signal from an insulin receptor is inhibited by treating mature adipocytes with TNF-α, so that a reaction of glucose uptake is inhibited by insulin stimulation (Proc. Natl. Acad. Sci. USA, vol. 91, p 4854-4858 (1994)). The enhancing action by 4-hydroxyderricin on glucose uptake into mature adipocytes in which insulin resistance was induced by TNF-α was evaluated.
The induction of differentiation into mature adipocytes was carried out in the same manner as in the method described in Example 83, except that after preparation of the mature adipocytes, in order to induce insulin resistance in these mature adipocytes, mouse-derived TNF-α (manufactured by Cosmobio, 3410) was added to the medium so as to have a final concentration of 10 ng/mL or 20 ng/mL, and the adipocytes were cultured for additional 2 days. […]
The enhancing action on glucose uptake was evaluated in the same manner as in the method described in Example 83. For each of the cells prepared in item (1) of Example 95 mentioned above, there were set a group containing 4-hydroxyderricin at a final concentration of 30 μM, a group without addition of the sample as a negative control, and a group with treatment with insulin, and the radioactivity of each group was determined. […]

For series [2], the system named is mature adipocytes which were induced to be differentiated by xanthoangelol. Briefly: Glucose uptake into adipocytes induced to be differentiated by xanthoangelol. The format is cell-based. The settings on record: stimulation with 4-hydroxyderricin 20 μM; adipocytes differentiated with xanthoangelol 10 μM. How it is done: Adipocytes which were induced to be differentiated by xanthoangelol were obtained, and thereafter it was confirmed on whether the glucose uptake into the adipocytes is enhanced by stimulation with insulin or 4-hydroxyderricin.
Specifically, as a sample, there was set a group with addition of a dimethyl sulfoxide solution of xanthoangelol having a final concentration of 10 μM. Thereafter, the medium and the sample were exchanged in the same manner as in the method described in Example 82 except that 3-isobutyl-1-methylxanthine having a final concentration of 0.5 mM was added concurrently with the addition of dexamethasone, to give mature adipocytes which were induced to be differentiated by xanthoangelol.
Next, the amount of 2-deoxyglucose uptake into the mature adipocytes during the stimulation with insulin or 4-hydroxyderricin in the resulting mature adipocytes was determined in the same manner as in the method described in Example 83.
Specifically, there were set the group without the addition and the group with addition of insulin having a final concentration of 1 μg/mL or 4-hydroxyderricin having a final concentration of 20 μM. Thereafter, the amount of 2-deoxy-[1,2-^3H(N)]-glucose uptake into the adipocytes was determined in the same manner.

The test system of series [3] is mature adipocytes (3T3-L1 cells). In words: Glucose uptake enhancement inhibited by cytochalasin B. The format is cell-based. On the procedure:
The influence of cytochalasin B on 2-deoxyglucose uptake into matured adipocytes during the stimulation with the sample in the adipocytes was tested in accordance with the method shown in Example 83 on whether or not the enhancing action of 4-hydroxyderricin on glucose uptake shown in Example 83 is inhibited by cytochalasin B, which is an inhibitor of a glucose transporter.
Specifically, as a sample, a group with addition of a dimethyl sulfoxide solution of 4-hydroxyderricin so as to have a final concentration of 7.8 μM was set. Here, there were set a group without addition of the sample as a negative control and a group with addition of insulin so as to have a final concentration of 1 μg/mL as a positive control. Furthermore, there was set a group with addition of cytochalasin B (manufactured by nacalai tesque, 10435-81) to each group so as to have a final concentration of 40 μM in the same time as the time of addition of insulin. Thereafter, 2-deoxy-[1,2-^3H(N)]-glucose subjected to uptake into the adipocytes was determined in the same manner.

In series [4] the test system is type II diabetes model mice. Briefly: Amelioration effects on diabetes of xanthoangelol (blood glucose level, serum insulin). The class given is in vivo. The settings on record: female KK-Ay mice. How it is done:
Pathological amelioration effects of xanthoangelol were examined using type II diabetes model mice. Experiments were carried out with five female 12-week old KK-Ay mice (CLEA Japan, Inc.) per group. Xanthoangelol was suspended or dissolved in an olive oil so as to have a concentration of 4% (w/v), and the suspension or solution was forcibly orally administered to the mice once a day at 200 mg/kg for consecutive days. The olive oil was administered to mice in the control group at 5 mL/kg in the same manner. On the day before the beginning of administration, on the fourth day and on the twenty-second day, the blood glucose level was determined in the same manner as in Example 88. In addition, on the twenty-second day, blood was simultaneously collected from abdominal cava, and the insulin concentration in serum was determined with Lebis Insulin Kit (Shibayagi Co., Ltd.). […] During the experimental period, no changes were found in body weight and general symptoms.

Another series concerns KK-Ay mice. In words: Glucose tolerance test, xanthoangelol. The format is in vivo. The settings on record: female KK-Ay mice, 200 mg/kg oral once a day. On the procedure: Amelioration effects for glucose tolerance of xanthoangelol were examined using female 12-week old KK-Ay mice. Xanthoangelol which was previously suspended or dissolved in an olive oil in a concentration of 4% (w/v) was forcibly orally administered to a group to be administered with xanthoangelol at 200 mg/kg once a day for consecutive days. An olive oil was administered to the mice in the control group at 5 mL/kg in the same manner. The mice were fasted over one night spanning the sixteenth day to the seventeenth day from administration, and the glucose tolerance test was carried out in the same manner as in Example 91.

The mark [5] stands for this setting: 200 mg/kg oral once a day in olive oil, mean ± standard error.

Take `COc1ccc(C(=O)/C=C/c2ccc(O)cc2)c(O)c1CC=C(C)C` [4-Hydroxyderricin, 4,2′-Dihydroxy-3′-prenyl-4′-methoxychalcone]: the “enhancing action on glucose uptake, increase without TNF-α defined as 100%” value in series [1] is “around 80%”. For the same compound, the “2-deoxy-[1,2-3H(N)]-glucose uptake” value in series [2] is “enhancement of 2-deoxy-[1,2-^3H(N)]-glucose uptake”; in series [3] (4-hydroxyderricin 7.8 μM, compared to the negative control), “enhancement of 2-deoxy-[1,2-^3H(N)]-glucose uptake”. Besides, the “2-deoxy-[1,2-3H(N)]-glucose uptake on addition of cytochalasin B” value in series [3] (cytochalasin B 40 μM added to the 4-hydroxyderricin 7.8 μM, insulin 1 μg/mL and negative control groups) is “almost completely inhibited”.

Take `CC(C)=CCC/C(C)=C/Cc1c(O)ccc(C(=O)/C=C/c2ccc(O)cc2)c1O` [Xanthoangelol, 4,2′,4′-Trihydroxy-3′-geranylchalcone]: in series [4] (200 mg/kg oral once a day), the “action of ameliorating insulin resistance” value was “action of ameliorating insulin resistance was found”; the “blood glucose level and insulin concentration (in words)” value is recorded as “lowered”. Moreover, in series [4] (setting [5]), the “Blood Glucose Level, Fourth Day” value worked out at 192 ± 16 mg/dL and the “Blood Glucose Level, Twenty-second Day” value amounted to 209 ± 8 mg/dL. Moreover, the “changes in body weight and general symptoms” value in series [4] (200 mg/kg oral once a day, experimental period) is reported as “no changes”. Also, the “Blood Glucose Level, Previous Day” value in series [4] (day before beginning of administration, 200 mg/kg oral once a day in olive oil, mean ± standard error) was found to be 249 ± 13 mg/dL. In addition, the “Insulin (concentration in serum)” value in series [4] (twenty-second day, 200 mg/kg oral once a day in olive oil, mean ± standard error) is recorded as 31 ± 7 ng/mL. The “action on the elevation in the blood glucose level after the glucose tolerance (in words)” value with KK-Ay mice is listed as “suppressive action”. For the same compound, in the series on KK-Ay mice (seventeenth day, fasted), the “Blood Glucose Level, Before Glucose Tolerance” value was 106 ± 7 mg/dL. Further, the “Blood Glucose Level, 30 Minutes After Tolerance” value with KK-Ay mice (seventeenth day, fasted, glucose 1 g/kg i.p.) amounted to 234 ± 15 mg/dL.
